These results are taken from patent US7378121B2, “Use of ferulic acid amides as flavor compounds” (Symrise GmbH & Co. KG, priority 2001, dated 2008).

Data set [1] can be described thus: Test of the combined action of grains of paradise extract and trans-feruloylmethoxytyramine in model system A. Format: in vivo, human. Conditions: 0.02% by weight solution (10% by weight EtOH) in model system A. As to the method:
(§1) The grains of paradise extract used below was prepared by stirring 800 g of ground grains of paradise with 4 kg of ethanol (96% by volume). After filtration the filtrate was concentrated to 40 g and treated with steam at 100° C. and 300 mbar. The extract was made up to 80 g with ethanol (96% by volume).
(§2) As commercially conventional model systems, a liqueur base of 10% by volume and a liqueur base of 5.5% by volume were selected.
Then, to model system A the solution of a grains of paradise extract (10% by weight in ethanol) was added at concentrations of 0.1 to 0.2% by weight, based on the total weight of the model system, and a solution of trans-feruloylmethoxytyramine (10% by weight in ethanol) at a concentration of 0.01 to 0.02% by weight, based on the total weight of the model system. Using a taste-testing group of 8 people, again the effect of grains of paradise extract addition and of trans-feruloylmethoxytyramine addition on the sensory profile were tested. In addition, the combined action was tested.

Data set [2] is described as follows: Tasting of the pungent compounds in 11% strength by weight sugar solution (Example 1). The data set is classed as in vivo, human. To be noted: approx. 5 ml swallowed, 8 testers. The method, then: The substance, under test, was dissolved in ethanol and the ethanolic solution was then diluted with an 11% strength by weight sugar solution (final concentration: c). For tasting, in each case approximately 5 ml of the sugar solution was swallowed. If the threshold value of the substance was known, a value just above the threshold value is chosen for the tasting. A group of 8 testers tasted the solutions.

Data set [3] in a line: Gelled fruits having elderberry flavor, flavor intensifier test. Format: in vivo, human. Conditions: elderberry flavor 0.07% by weight. The source says:
As commercially conventional model system, flavor combinations in gelled fruits having elderberry flavor were used: […]

Data set [4] is described as follows: Sensory assessment of the pungency of liqueur base model system A (10% by volume) with additions. Format: in vivo, human. Conditions: 1% by weight of solution (1% by weight in EtOH) added to model system A. The method, then: as §1, §2
To the model system A were then added the solution of the extract of grains of paradise (1% by weight in ethanol (EtOH)) at concentrations of 1 to 3% by weight, based on the total weight of the model system, and a solution of trans-feruloylmethoxytyramine (1% by weight in ethanol) at a concentration of 1% by weight, based on the total weight of the model system. Using a taste-testing group of 8 people, the effect of grains of paradise extract addition and trans-feruloylmethoxytyramine addition on the sensory profile were then tested. The sensory assessment was made on a scale of 1 (weak) to 5 (strong).

For data set [5] the following is noted: with frequent use and overdose; cited from earlier work.
A further data set deals with mouse. Conditions: cited from earlier work.
For data set [6] the following is noted: in vivo; cited from earlier work.

The structures appear in SMILES notation.

As for `COc1cc(/C=C/C(=O)NCCc2ccc(O)c(OC)c2)ccc1O` [trans-feruloylmethoxytyramine, N-[2-(4-hydroxy-3-methoxyphenyl)ethyl]-3-(4-hydroxy-3-methoxyphenyl)-(2E)-propenamide], in data set [1], the “Comments (sensory)” value is reported as “Mild, pungency very similar”. The Sensory profile entry in data set [2] (c=10 ppm in 11% sugar solution) is reported as “body, sweet, heat develops after delay, long-lasting, especially in the pharyngeal cavity (in the case of 4 participants), adherent, slightly anaesthetizing action”; in data set [2] (c=20 ppm in 11% sugar solution), “sweet, aniseed-like, benzaldehyde, heat develops after a delay (in the case of 8 participants), long-lasting, especially in the pharyngeal cavity, pleasant pepper pungency”. Further, the Sensory description entry in data set [3] (0.015% by weight of solution (1% by weight in ethanol)) is “Effect only slightly perceptible”; in data set [3] (0.03% by weight of solution (1% by weight in ethanol)), “Effect below threshold, but pleasant”; in data set [3] (0.045% by weight of solution (1% by weight in ethanol)), “Flavor fresh and rounded”; in data set [4], “Sweet, vanilla, fruity, less”. For the same compound, in data set [4] (scale 1 (weak) to 5 (strong), 8 people), the “Pungency (median), Scale 1-5” value stood at 2.
Turning to `O=C(/C=C/c1ccc(O)c(O)c1)NCCc1ccc(O)cc1` [trans-caffeoyltyramine, N-[2-(4-hydroxyphenyl)ethyl]-3-(3,4-dihydroxyphenyl)-(2E)-propenamide], in data set [2] (c=1 ppm in 11% sugar solution), the Sensory profile entry is on record as “pungency occurs after a delay, anaesthetizing pungency”.
For `COc1cc(CNC(=O)CCCC/C=C/C(C)C)ccc1O` [capsaicin, N-(4-hydroxy-3-methoxybenzyl)-8-methyl-(6E)-nonenamide], the Chronic damage entry in data set [5] was “chronic gastritis, kidney damage and liver damage”. Moreover, the “LD50 (mouse oral)” value in the data set with mouse is listed as 47 mg.
Turning to `COc1ccc(/C=C/C(=O)NCCc2ccc(OC)c(OC)c2)cc1OC` [trans-rubenamine, N-[2-(3,4-dimethoxyphenyl)ethyl]-3-(3,4-dimethoxyphenyl)-(2E)-propenamide], the Sensory profile result in data set [2] (c=1 ppm in 11% sugar solution) is on record as “pleasant mild pungency, builds up slowly”.
In the case of `COc1cc(/C=C\C(=O)NCCc2ccc(O)c(OC)c2)ccc1O` [cis-feruloylmethoxytyramine, N-[2-(4-hydroxy-3-methoxyphenyl)ethyl]-3-(4-hydroxy-3-methoxyphenyl)-(2Z)-propenamide], in data set [2] (c=1 ppm in 11% sugar solution), the Sensory profile entry is given as “pungency builds up slowly”.
On to `COc1cc(/C=C/C(=O)NCc2ccc(O)c(OC)c2)ccc1O` [ferulic acid N-vanillylamide, N-(4-hydroxy-3-methoxybenzyl)-4-hydroxy-3-methoxy-(2E)-propenamide], for which, in data set [6], the “Pungency as described in the literature” value is recorded as “not described as pungent”.
